# US20080187605A1, “PREVENTING PATHOLOGICAL NERVE CELL SUICIDE (NEUROAPOPTOSIS) IN IMMATURE NERVOUS SYSTEMS” (priority 2007, published 2008)
# Entries after “also recorded” stand apart in the source; their conditions may differ. Where two headings read alike, the source gives them in different places.
# Key:
# [1] = system: caudate nucleus of infant mouse brain; assay: Pilocarpine pretreatment against isoflurane- or midazolam-induced neuroapoptosis, activated caspase 3 IHC counts
# Text: Agents that suppress neuronal activity, including GABAergic anesthetic agents such as midazolam and isoflurane, trigger neuroapoptosis in the infant mouse brain. If suppression of neuronal activity is a sufficient cause of the neuroapoptosis response, it is possible that agents that increase neuronal activity, such as the muscarinic cholinergic agonist, pilocarpine, might counteract this response. […] Control littermates received saline instead of pilocarpine, then were exposed to the same midazolam or isoflurane treatments. The animals were euthanized 6 hrs after initiation of anesthetic drug exposure and the neuroapoptosis response in the caudate nucleus was evaluated by stereological counting of neuronal profiles showing positive IHC staining for activated caspase 3.
# infant mouse brain [2] = conditions: for number of AC3-positive profiles, ketamine by itself: five day old mice, ketamine 40 mg/kg, caudate nucleus and cerebral cortex, vs saline
# Description: (§1) Five day old infant mice were treated either with saline or ketamine (40 mg/kg), or lithium carbonate (6 Meq/kg), or ketamine (40 mg/kg) plus lithium (6 Meq/kg). The animals were euthanized 6 hrs after initiation of drug exposure and the neuroapoptosis response in 2 different brain regions (caudate nucleus, cerebral cortex) was evaluated by stereological counting of neuronal profiles showing positive immunohistochemical staining for activated caspase 3 (AC3). The mean number of AC3-positive profiles per mm^3 across these 2 brain regions was calculated for each treatment condition.
# infant mouse brain [3] = conditions: 6 hrs; for number of AC3-positive profiles, ethanol by itself: ethanol 250 mg/g, mean across 5 brain regions, vs saline
# Description: The mean number of AC3-positive profiles per mm^3 across all 5 brain regions was calculated for each treatment condition.
# ERK-1 = conditions: infant mice; within less than 30 minutes after ethanol
# ERK-2 = conditions: infant mice; within less than 30 minutes after ethanol
# AKT = conditions: infant mice; within 30 minutes after ethanol
# [4] = system: caudate/putamen of infant mouse brain; assay: Xenon and isoflurane neuroapoptosis, activated caspase-3 stereology
# Description: Seven-day-old C57BL/6 mice were exposed to one of four conditions: air (control); 0.75% isoflurane; 70% xenon or 0.75% isoflurane+70% xenon (n≧9 per group) for 4 hours. All pups were euthanized 2 hours later for histopathological evaluation of the brains, using activated caspase-3 immunohistochemical staining to detect apoptotic neurons. Quantitative assessment of the number of apoptotic neurons in caudate/putamen under each condition was performed by unbiased stereology.
# The results are depicted graphically in FIG. 7. In this graph, the number of apoptotic neurons under the control condition is given as 100% and the values for the experimental conditions are given as a percentage of the control.
# 7 day old rat brain = conditions: xenon administered 4 hours ahead as preconditioning stimulus; cited from earlier work
# infant mouse brain [5] = conditions: 6 hrs
# Description: as §1, with “The” for “Five day old infant mice were treated either with saline or ketamine (40 mg/kg), or lithium carbonate (6 Meq/kg), or ketamine (40 mg/kg) plus lithium (6 Meq/kg). The”
# [6] = system: infant mouse brain (RSC/S and thalamus); conditions: infant mice; single dose of lithium carbonate before brain injury or up to 4 hours after injury
# Text: The method used herein for creating a consistent and reproducible head injury, in infant rats and mice, uses an electromagnetic impact device with a moving coil actuator, mounted on the arm of a stereotaxic holder. The actuator is positioned over the skull of an anesthetized animal, and has a blunt tip aimed at a specific location and angle on the skull. The actuator is driven electromagnetically, and impacts the skull at a computer-controlled speed, delivering a precise concussive force to a targeted zone on the skull.
# As described in reports such as Bayly et al 2006, this type of concussive force can be applied to a single side of the head, creating nerve cell death by two different mechanisms. Brain cells directly beneath the skull at the site of impact die by an excitotoxic mechanism, which is confined to the local impact zone, and which leads to end-stage cell death within 4 hours. […]
# In these tests, apoptotic neurons were detected by immunohistochemical staining of activated caspase-3 proteins. The quantitative counts were performed in RSC/S and thalamus tissues taken from both (i) the ipsilateral side of the brain, which was damaged, and (ii) the contralateral side of the brain, which was not damaged. […]
compound,measurement,setting,value
CC[C@@H]1C(=O)OC[C@@H]1Cc1cncn1C [pilocarpine],neuroapoptotic response to isoflurane in the caudate nucleus,"[1]; P5 mice, pilocarpine 20 mg/kg 2 hrs before isoflurane 0.75% for 4 hrs, euthanized 6 hrs after start of anesthetic, vs saline pretreatment",significantly reduced; also recorded: markedly reduces
same,neuroapoptotic response to midazolam in the caudate nucleus,"[1]; P5 mice, pilocarpine 20 mg/kg 2 hrs before midazolam 9 mg/kg, euthanized 6 hrs after start of anesthetic, vs saline pretreatment",significantly reduced; also recorded: markedly reduces
same,degeneration of caudate neurons caused by a GABA anesthetic drug,"[1]; infant mice, pilocarpine given prior to GABA anesthetic drug","completely prevented, or greatly reduced"
same,protective effect depending on timing of pilocarpine,[1]; pilocarpine given at the same time as the anesthetic (protective if 2 or more hrs prior),not if given at the same time
CNC1(c2ccccc2Cl)CCCCC1=O (stereo not shown) [ketamine],"number of AC3-positive profiles, ketamine by itself",infant mouse brain [2]; 6 hrs,severe and pathological neuroapoptosis
same,"number of AC3-positive profiles, ketamine by itself","infant mouse brain [2]; 6 hrs, listed as Ketamine",marked increase
CCO [ethanol],"number of AC3-positive profiles, ethanol by itself",infant mouse brain [3]; five day old mice,strong neuroapoptotic response
same,"number of AC3-positive profiles, ethanol by itself","infant mouse brain [3]; five day old mice, listed as Ethanol",marked increase
same,activated isoform of ERK-1,ERK-1,rapid decrease
same,activated isoform of ERK-2,ERK-2,rapid decrease
same,activated isoform of AKT,AKT,marked suppression
[Xe] [xenon],"apoptotic response of xenon together with isoflurane, relative to xenon alone",[4]; 0.75% isoflurane+70% xenon for 4 hours,only moderately higher
same,"neurotoxic reaction of xenon plus isoflurane, greater than control","[4]; 0.75% isoflurane+70% xenon for 4 hours, control (air) given as 100%",about 350%
same,protection against isoflurane-induced neuroapoptosis,[4]; 70% xenon combined with 0.75% isoflurane,markedly reduces; also recorded: strongly protects; also recorded: markedly protects
same,"degree of neuroapoptotic response, drug alone",[4]; 70% xenon or 0.75% isoflurane alone for 4 hours,relatively weak neuroapoptogenic potential; also recorded: mild degree; also recorded: mild neuroapoptotic response
same,"neuroapoptosis in the caudate/putamen, drug alone compared to controls","[4]; seven-day-old mice, 70% xenon or 0.75% isoflurane for 4 hours, euthanized 2 hours later, vs air",significant increase
same,hypoxic and/or ischemic neurodegeneration,7 day old rat brain,protect
Cc1ncc2n1-c1ccc(Cl)cc1C(c1ccccc1F)=NC2 [midazolam],"apoptotic response in the caudate nucleus, anesthetic alone","[1]; infant mice, isoflurane 0.75% for 4 hrs or midazolam 9 mg/kg",induced
"O=C([O-])[O-].[Li+].[Li+] [lithium, lithium carbonate]",protection against ketamine-induced neuroapoptosis,infant mouse brain [2]; lithium 6 Meq/kg,total protection; also recorded: potently prevent
same,"apoptosis rate, lithium plus ketamine","infant mouse brain [2]; lithium 6 Meq/kg plus ketamine 40 mg/kg, 6 hrs",down to the same level as for lithium alone
same,"number of AC3-positive profiles, lithium by itself (spontaneous neuroapoptosis)","infant mouse brain [2]; lithium carbonate 6 Meq/kg, 6 hrs, ketamine experiment, vs saline controls",marked reduction
same,"apoptosis rate, lithium plus propofol",infant mouse brain [5]; lithium 6 Meq/kg plus propofol 50 mg/kg,down to a level lower than the saline control level
same,"number of AC3-positive profiles, lithium by itself (spontaneous neuroapoptosis)","infant mouse brain [5]; lithium carbonate 6 Meq/kg, propofol experiment, vs saline controls",marked reduction
same,apoptotic neurodegeneration after traumatic brain injury,[6],prevented almost all
same,"number of AC3-positive profiles, lithium by itself (spontaneous neuroapoptosis)","infant mouse brain [3]; five day old mice, lithium carbonate 3 or 6 Meq/kg (equally strong), vs saline controls",marked reduction
same,"apoptosis rate, lithium plus ethanol",infant mouse brain [3]; lithium 3 Meq/kg plus ethanol 250 mg/g,down to the same rate as in saline controls
same,"apoptosis rate, lithium plus ethanol",infant mouse brain [3]; lithium 6 Meq/kg (higher dose) plus ethanol 250 mg/g,down to lower than the saline control level
FC(F)OC(Cl)C(F)(F)F (stereo not shown) [isoflurane],"neuroapoptosis in the caudate/putamen, drug alone compared to controls","[4]; mouse, in vivo",significant increase
